This is an account of results in US5670498A, “8-substituted styryl xanthine derivatives” (Kyowa Hakko Kogyo Co., Ltd., priority 1992, dated 1997).

SMILES strings stand for the structures.

In general, Ki refers to a dissociation constant, usually derived from enzyme kinetics or from competition with a known ligand. A low value points to tighter binding. In general, inhibition refers to the share of the control response that was lost under treatment.

In assay [1] the test system is Haloperidol-Induced Catalepsy. Put plainly: Effect on Haloperidol-Induced Catalepsy. It is filed as in vivo, male ddY mice. The following applies: 10 mg/kg po. The protocol:
Effect on Haloperidol-Induced Catalepsy Parkinson's disease is a clinical syndrome caused by degeneration of nigrostriatal dopaminergic neurons. […] The experiment was performed by using several groups of 5-weeks-old male ddY mice (weighing 22 to 24 g, Japan SLC), each group consisting of 5 mice. Haloperidol (Janssen Pharmaceutica) suspended in 0.3% CMC was intraperitoneally administered to each mouse at a dose of 1.0 mg/kg. Test compounds were suspended in injectable distilled water (Otsuka Pharmaceutical Co., Ltd.) containing Tween 80 [polyoxyethylene (20) sorbitan monooleate]. L-DOPA (Kyowa Hakko Kogyo Co., Ltd.) and benserazide hydrochloride (Kyowa Hakko Kogyo Co., Ltd.) were suspended in 0.3% CMC. One hour after the haloperidol administration, the test compound suspensions and the control suspension [injectable distilled water (Otsuka Pharmaceutical Co., Ltd.) containing Tween 80] containing no test compound were orally administered to separate groups of the mice (0.1 ml per 10 g of body weight). One hour after the administration of the test compound, the forelimbs of each mouse and subsequently the hindlimbs of the same mouse were placed on a 4.5 cm-high, 1.0 cm-wide bar and catalepsy was estimated. […] The catalepsy score and the standard of judgment are shown below. […] The effect of the compounds was evaluated by the total of the catalepsy scores of five mice in each group (25 points at the full).

The next assay concerns the target T1, adenosine A2 receptor (Rattus norvegicus, UniProt P30543).
T1 construct: Corpus striatum of a rat was suspended in ice-cooled 50 mM Tris; from tissue; host or cells: rat corpus striatum (washed membrane suspension)
Put plainly: Adenosine A2 Receptor Binding Test (3H-CGS 21680, rat corpus striatum).

The subject of assay [2] is Clonidine-Induced Aggressive Behavior. Kind of assay: Effect on Clonidine-Induced Aggressive Behavior. The following applies: 10 mg/kg po, clonidine 20 mg/kg ip. Format: in vivo, male ddY mice. The protocol: Effect on Clonidine-Induced Aggressive Behavior The effect of a test compound on the aggressive behavior induced by intraperitoneal administration of clonidine was investigated [Eur. J. Pharmacol., 29, 374 (1968)]. The experiment was performed by using several groups of male ddY mice (weighing 20 to 25 g, Japan SLC), each group consisting of two mice. The test compound was suspended in injectable distilled water (Otsuka Pharmaceutical Co., Ltd.) containing Tween 80. Clonidine hydrochloride (Sigma Co.) was dissolved in physiological saline solution (Otsuka Pharmaceutical Co., Ltd.). The test compound suspension and the control suspension [injectable distilled water (Otsuka Pharmaceutical Co., Ltd.) containing Tween 80] were orally administered to separate groups of the mice (0.1 ml per 10 g of body weight). Sixty minutes after the oral administration of the test compound, clonidine hydrochloride (20 mg/kg) was intraperitoneally injected. The number of biting attacks during 30 minutes after clonidine treatment was counted. The effect of the compound was evaluated by comparing the average number of biting attacks of the test compound-administered groups with that of control groups (Student's t-test).

Where [3] appears, read: read-out: A2 Receptor Inhibition Rate.

T1 sequence (P30543 whole entry): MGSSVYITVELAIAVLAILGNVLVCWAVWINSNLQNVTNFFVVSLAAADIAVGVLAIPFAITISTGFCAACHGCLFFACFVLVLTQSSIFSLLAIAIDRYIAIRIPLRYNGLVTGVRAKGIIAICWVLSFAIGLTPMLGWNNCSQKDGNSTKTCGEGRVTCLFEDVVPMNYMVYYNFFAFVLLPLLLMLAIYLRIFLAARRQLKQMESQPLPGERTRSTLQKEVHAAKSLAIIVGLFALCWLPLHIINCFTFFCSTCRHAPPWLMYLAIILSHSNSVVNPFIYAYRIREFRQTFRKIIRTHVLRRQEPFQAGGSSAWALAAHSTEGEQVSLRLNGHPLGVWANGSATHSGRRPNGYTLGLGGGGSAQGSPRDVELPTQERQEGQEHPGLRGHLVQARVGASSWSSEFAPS
Experimental for adenosine A2 receptor: Adenosine Receptor Antagonistic Activity (Adenosine A2 Receptor Binding Test)
Corpus striatum of a rat was suspended in ice-cooled 50 mM Tris hydroxymethyl aminomethane hydrochloride (Tris HCl) buffer (pH 7.7) by using Polytron homogenizer (manufactured by Kinematicas Co.). The suspension was centrifuged (50,000×g, 10 minutes), and the precipitate was suspended again in the same amount of 50 mM Tris HCl buffer. The suspension was centrifuged under the same conditions, and the final precipitate was suspended once again in 50 mM Tris HCl buffer containing 10 mM magnesium chloride and 0.02 unit/mg tissue of adenosine deaminase (manufactured by Sigma Co.) to give a tissue concentration of 5 mg (wet weight)/ml.
To 1 ml of the tissue suspension thus prepared were added 50 μl of a mixture of N-ethylcarboxamidoadenosine labeled with tritium (^3 H-NECA: 26 Ci/mmol, manufactured by Amersham Co.) (final concentration: 3.8 nM) and cyclopentyladenosine (CPA, manufactured by Sigma Co.) (final concentration: 50 nM), and 50 μl of a test compound. The resulting mixture was allowed to stand at 25° C. for 120 minutes and then rapidly filtered by suction through a glass fiber filter (GF/C, manufactured by Whatman Co.). The filter was immediately washed three times with 5 ml each of ice-cooled 50 mM Tris HCl buffer, and transferred to a vial, and a scintillator (EX-H by Wako Pure Chemical Industries, Ltd.) was added thereto. The radioactivity on the filter was determined with a liquid scintillation counter (manufactured by Packard instrument Co.).
The similar procedure as above was repeated to determine the radioactivity bound to the A2 receptors using 50 μl of CGS 21680 labeled with tritium {^3 H-2-[p-(2-carboxyethyl)phenethylamino]-5'-(N-ethylcarboxamide)adenosine: 40 Ci/mmol, manufactured by New England Nuclear Co. [J. Pharmacol. Exp. Ther., 251, 888 (1989)]} (final concentration: 4.0 nM) in place of 50 μl of the mixture of N-ethylcarboxamidoadenosine labeled with tritium (^3 H-NECA: 26 Ci/mmol, manufactured by Amersham Co.) (final concentration: 3.8 nM) and cyclopentyladenosine (CPA, manufactured by Sigma Co.) (final concentration: 50 nM).
The inhibition rate of the test compound against the binding of A2 receptors (^3 H-CGS 21680 binding) was calculated by the following equation: [formula]
The Ki values shown in the table were calculated by the following equation: [formula]

As for `CCn1c(=O)c2c(nc(/C=C/c3cccc(C(C)=O)c3)n2C)n(CC)c1=O` [Compound 24, (E)-8-(3-Acetylstyryl)-1,3-diethyl-7-methylxanthine], the “Total Score (catalepsy)” value in assay [1] (sum of five mice, 25 points at the full, control 25) worked out at 7. Also, the inhibition in vivo at 10 mg/kg in assay [1] (Mus musculus, decrease in total score based on control group, read-out: Remission Rate) is 72%. The same compound gave a Ki on adenosine A2 receptor ([3H]CGS 21680 (inhibition rates of the same line marked *)) of 13 nM. At adenosine A2 receptor (setting [3]), the inhibition at 0.1 µM came to 85% and the inhibition at 1 µM was determined as 99%. Further, the “Number of the Attacks of Test Compound-Treated Group/Number of the Attacks of Control Group” value in assay [2] is given as 5.3. The “Number of the Biting Attacks (mean ± S.E.M.), Test Compound-Treated Group” value in assay [2] (30 minutes, control 6.3 ± 2.09, p < 0.05) was determined as 33.1 ± 7.16.
